Converted amounts (≈) assume the structure as drawn. Like-named read-outs stand apart in the source and are kept apart here.
What was measured:
[1] = system: isolated guinea-pig intestines; assay: Spasmolytic activity on isolated guinea-pig intestines (Magnus); settings: for IC50: Cavia porcellus
Procedure: The compound according to the invention has also been examined for its influenece on coronary circulation and on the heart mechanogram in isolated guinea-pig hearts according to the method of Langendorff (Langendorff, O., Pfluegers Arch. 61 (1895), 219) as well as for its spasmolytic activity on isolated guinea-pig intestines according to the method of Magnus (Magnus, R., Pflugers Arch. 102 (1904), 123). In this latter case, the spasmolytic activity was determined in relation to 0.2 μg/ml of histamine and 100 μg/ml of barium chloride.

mice [2] = settings: mouse, in vivo, po
[3] = Side-effect activities (cardiotoxic, central nervous system, sedation, vegetative nervous system); settings: therapeutically relevant doses
[4] = system: isolated guinea-pig heart; assay: Activity on the isolated guinea-pig heart (Langendorff): coronary circulation and contraction level; settings: for Effect on coronary vessels / circulation / Influence on contraction level of the isolated heart: in words
mice [5] = assay: Acute toxicity test on mice (LD50); settings: in words
[6] = Acute toxicity test on mice (LD50); settings: mouse, in vivo
mice [7] = assay: Tetrabenazine catalepsy test on mice, influence on the duration of catalepsy; format: in vivo, mouse; settings: for Effect in tetrabenazine catalepsy test compared with imipramine: in words
Procedure: (§1) The pharmacological activity of the substance according to the invention was investigated in the tetrabenazine catalepsy test and in the reserpine antagonism test at the mouse.
Mice in groups of 10 animals each were given 15 mg/kg of tetrabenazine i.p. 30 minutes after administration of the test substance. The onset of a cataleptic condition is assessed on a 2-step round cork on to which the animals are placed so that they touch the bottom step with their head and forepaws and the upper step with their hind paws. Such a position is corrected immediately by a normal animal. For assessment, the reaction of the animals is observed every 60 seconds. The inhibition of catatonia is calculated in percentage values in relation to a control group.

mice [8] = assay: Reserpine antagonism test on mice; format: in vivo, mouse; settings: in words
Excerpt: as §1

[9] = against 0.2 μg/ml histamine, read-out: Spasmolytic activity as ED50 relative to histamine
[10] = against 100 μg/ml barium chloride, read-out: Spasmolytic activity as ED50 relative to BaCl2

COc1ccc2oc(C(=O)N3CCN(Cc4ccccc4)CC3)cc2c1 [According to the invention, N-(5-Methoxybenzofuran-2-ylcarbonyl)-N'-benzylpiperazine]
IC50 [1, 9]: 5 to 10 µg/mL (≈ 14.3 to 28.5 µM)
IC50 [1, 10]: 5 to 10 µg/mL (≈ 14.3 to 28.5 µM)
Spasmolytic activity ([1]; in words): only small
Influence on the peripheral vegetative nervous system ([1]; in words, concluded from spasmolytic activity): influenced only slightly, if at all
Compatibility (tolerability) compared with comparison preparation (mice [2]): more than ten times more compatible than the comparison preparation
Cardiotoxic activity [3]: has not shown in therapeutically relevant doses any cardiotoxic
Central nervous system stimulation activity [3]: has not shown
Influence on the vegetative nervous system [3]: has not shown
Sedation activity [3]: has not shown
activation at 0.05 mg ([4]; Cavia porcellus, dose 50 μg, read-out: Change in coronary circulation): 39%
inhibition at 0.05 mg ([4]; Cavia porcellus, dose 50 μg, read-out: Influence on contraction level): 0%
Effect on coronary vessels / circulation [4]: causes a dilation of the coronary vessels
Influence on contraction level of the isolated heart [4]: does not influence the contraction level of the isolated heart
Toxicity compared with imipramine (mice [5]): considerably lower toxicity
LD50 ([6]; ip): 548 mg/kg
LD50 ([6]; po): > 4000 mg/kg
Change of duration of catalepsy relative to control (mice [7]; 20 mg/kg p.o., 20 min post appl., n=40): -62 ± 26%
Effect in tetrabenazine catalepsy test compared with imipramine (mice [7]): substantially stronger effect than the comparison substance
Effect in tetrabenazine catalepsy test compared with imipramine (mice [7]; listed as substance according to the invention): substantially stronger effect than the commercially available comparison substance, imipramine
Activity in reserpine antagonism test compared with comparison substance (mice [8]): substantially equal in activity compared with the comparison substance

CN(C)CCCN1c2ccccc2CCc2ccccc21 [Imipramine]
IC50 [1, 9]: 0.001 µg/mL (≈ 0.00357 µM)
IC50 [1, 10]: 0.1 to 1 µg/mL (≈ 0.357 to 3.57 µM)
activation at 0.01 mg ([4]; Cavia porcellus, dose 10 μg, first value of pair, read-out: Change in coronary circulation (initial brief increase)): 19%
inhibition at 0.01 mg ([4]; Cavia porcellus, dose 10 μg, read-out: Influence on contraction level): 25%
inhibition at 0.01 mg ([4]; Cavia porcellus, dose 10 μg, second value of pair, read-out: Change in coronary circulation (subsequent constriction)): 18%
activation at 0.02 mg ([4]; Cavia porcellus, dose 20 μg, first value of pair, read-out: Change in coronary circulation (initial brief increase)): 28%
inhibition at 0.02 mg ([4]; Cavia porcellus, dose 20 μg, read-out: Influence on contraction level): 25%
inhibition at 0.02 mg ([4]; Cavia porcellus, dose 20 μg, second value of pair, read-out: Change in coronary circulation (subsequent constriction)): 29%
activation at 0.03 mg ([4]; Cavia porcellus, dose 30 μg, first value of pair, read-out: Change in coronary circulation (initial brief increase)): 84%
inhibition at 0.03 mg ([4]; Cavia porcellus, dose 30 μg, read-out: Influence on contraction level): 50%
inhibition at 0.03 mg ([4]; Cavia porcellus, dose 30 μg, second value of pair, read-out: Change in coronary circulation (subsequent constriction)): 22%
Effect on coronary vessels / circulation [4]: causes initially a brief increase in circulation, this then changes to a constriction
Influence on contraction level of the isolated heart [4]: heart damage which is shown by the reduction of the heart contraction
